Source: patent US8865734B2 (priority 2010, dated 2014)
In brackets after ≈: the same amount, converted by molar mass.

Assays:
[1] = system: in vitro grown Mycobacteria (M. tuberculosis); assay: QUM: Quantification of in vitro grown Mycobacteria (in vitro growth fluorescence assay); assay type: cell-based; settings: Mycobacterium tuberculosis; MIC, 80% bacterial growth inhibition; in vitro growth; read-out: QUM
Procedure, shortened: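 Mycobacterium tuberculosis grown in vitro was quantified by fluorescence across compound dose responses. MIC is defined as the minimum concentration producing 80% growth inhibition.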

[2] = system: M. tuberculosis inside the host macrophage; assay: QIM: Quantification of Intracellular Mycobacteria (intracellular growth assay, phenotypic cell-based); settings: Mycobacterium tuberculosis; MIC, 80% bacterial growth inhibition; intracellular growth; read-out: QIM
Procedure, shortened: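 Phenotypic high-content assay measuring M. tuberculosis multiplication inside host macrophages, run as dose response. MIC is the minimum compound concentration giving 80% bacterial growth inhibition.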

Row | SMILES | melting point [°C] | MIC [1] [µM] | MIC [2] [µM]
1 | CCc1nc2ccc(Cl)cn2c1C(=O)OCc1ccc(-c2ccccc2)cc1 [Compound 161, [1,1′-Biphenyl]-4-ylmethyl 6-chloro-2-ethylimidazo[1,2-a]pyridine-3-carboxylate] | 122.3 to 123 | < 1 | < 1
2 | CCc1nc2cc(Cl)ccn2c1C(=O)NCc1ccc(N2CCC(Oc3ccc(F)cc3)CC2)cc1 [Compound 167, 7-Chloro-2-ethyl-N-(4-(4-(4-fluorophenoxy)piperidin-1-yl)benzyl)imidazo[1,2-a]pyridine-3-carboxamide] | 138 to 139 | < 1 | < 1
3 | CCc1nc2cc(Cl)ccn2c1C(=O)NCc1ccc(N2CCN(Cc3ccc(F)cc3)CC2)cc1 [Compound 172, 7-Chloro-2-ethyl-N-(4-(4-(4-fluorobenzyl)piperazin-1-yl)benzyl)imidazo[1,2-a]pyridine-3-carboxamide] | 141 to 142 | < 1 | < 1
4 | CCc1nc2ccc(Cl)cn2c1C(=O)NCc1ccc(N2CCN(Cc3ccc(OC(F)(F)F)cc3)CC2)cc1 [Compound 173, 6-Chloro-2-ethyl-N-(4-(4-(4-(trifluoromethoxy)benzyl)piperazin-1-yl)benzyl)imidazo[1,2-a]pyridine-3-carboxamide] | 138.1 to 138.7 | < 1 | < 1
5 | CCc1nc2cc(Cl)ccn2c1C(=O)NCc1ccc(N2CCN(Cc3ccc(OC(F)(F)F)cc3)CC2)cc1 [Compound 174, 7-Chloro-2-ethyl-N-(4-(4-(4-(trifluoromethoxy)benzyl)piperazin-1-yl)benzyl)imidazo[1,2-a]pyridine-3-carboxamide] | 137.1 to 137.6 | < 1 | < 1
6 | CCc1nc2cc(Cl)ccn2c1C(=O)NCc1ccc(N2CCN(c3ccc(F)cc3)CC2)cc1 [Compound 176, 7-Chloro-2-ethyl-N-(4-(4-(4-fluorophenyl)piperazin-1-yl)benzyl)imidazo[1,2-a]pyridine-3-carboxamide] | 212 to 213 | < 1 | < 1
7 | CCc1nc2ccc(Cl)cn2c1C(=O)NCc1ccc(N2CCN(c3ccc(OC(F)(F)F)cc3)CC2)cc1 [Compound 178, 6-Chloro-2-ethyl-N-(4-(4-(4-(trifluoromethoxy)phenyl)piperazin-1-yl)benzyl)imidazo[1,2-a]pyridine-3-carboxamide] | 206.5 to 207 | < 1 | < 1
8 | CCc1nc2cc(Cl)ccn2c1C(=O)NCc1ccc(N2CCN(c3ccc(OC(F)(F)F)cc3)CC2)cc1 [Compound 179, 7-Chloro-2-ethyl-N-(4-(4-(4-(trifluoromethoxy)phenyl)piperazin-1-yl)benzyl)imidazo[1,2-a]pyridine-3-carboxamide] | 216.3 to 217 | < 1 | < 1
9 | CCc1nc2ccccn2c1C(=O)NCc1ccc(N2CCN(c3ccc(OC(F)(F)F)cc3)CC2)cc1 [Compound 181, 2-Ethyl-N-(4-(4-(4-(trifluoromethoxy)phenyl)piperazin-1-yl)benzyl)imidazo[1,2-a]pyridine-3-carboxamide] | 178 to 179 | < 1 | < 1
10 | CCc1nc2ccc(Cl)cn2c1C(=O)N(C)Cc1ccc(N2CCN(c3ccc(F)cc3)CC2)cc1 [Compound 182, 6-Chloro-2-ethyl-N-(4-(4-(4-fluorophenyl)piperazin-1-yl)benzyl)-N-methylimidazo[1,2-a]pyridine-3-carboxamide] | 148 to 149 | < 1 | 1 to 20 (≈ 0.506 to 10.1 µg/mL)
11 | CCc1nc2cc(Cl)ccn2c1C(=O)NCc1ccc(Oc2ccc(OC(F)(F)F)cc2)cc1 [Compound 186, 7-Chloro-2-ethyl-N-(4-(4-(trifluoromethoxy)phenoxy)benzyl)imidazo[1,2-a]pyridine-3-carboxamide] | 141 to 142 | < 1 | < 1
12 | CCc1nc2ccc(Cl)cn2c1C(=O)NCc1ccc(Oc2ccc(F)cc2)cc1 [Compound 187, 6-Chloro-2-ethyl-N-(4-(4-fluorophenoxy)benzyl)imidazo[1,2-a]pyridine-3-carboxamide] | 168 to 169 | < 1 | < 1
13 | CCc1nc2ccc(Cl)cn2c1C(=O)NCc1ccc(Oc2ccc(Cl)cc2)cc1 [Compound 190, 6-Chloro-N-(4-(4-chlorophenoxy)benzyl)-2-ethylimidazo[1,2-a]pyridine-3-carboxamide] | 159 to 160.7 | < 1 | < 1
14 | CCc1nc2cc(Cl)ccn2c1C(=O)NCc1ccc(Oc2ccc(Cl)cc2)cc1 [Compound 191, 7-Chloro-N-(4-(4-chlorophenoxy)benzyl)-2-ethylimidazo[1,2-a]pyridine-3-carboxamide] | 167.1 to 167.9 | < 1 | < 1
15 | CCc1nc2cc(Cl)ccn2c1C(=O)NCc1ccc(Oc2ccc(F)cc2)nc1 [Compound 193, 7-Chloro-2-ethyl-N-((6-(4-fluorophenoxy)pyridin-3-yl)methyl)imidazo[1,2-a]pyridine-3-carboxamide] | 167 to 167.6 | < 1 | < 1
16 | CCc1nc2ccc(Cl)cn2c1C(=O)NCc1ccc(Oc2ccc(OC(F)(F)F)cc2)nc1 [Compound 194, 6-Chloro-2-ethyl-N-((6-(4-(trifluoromethoxy)phenoxy)pyridin-3-yl)methyl)imidazo[1,2-a]pyridine-3-carboxamide] | 154 to 155 | 1 to 20 (≈ 0.491 to 9.82 µg/mL) | < 1
17 | CCc1nc2ccc(Cl)cn2c1C(=O)OCc1ccc(Oc2ccccc2)cc1 [Compound 196, 4-Phenoxybenzyl 6-chloro-2-ethylimidazo[1,2-a]pyridine-3-carboxylate] | 123.3 to 123.8 | 1 to 20 (≈ 0.407 to 8.14 µg/mL) | < 1
18 | CCc1nc2ccc(Cl)cn2c1C(=O)NCc1ccc(N2CC(C)OC(C)C2)cc1 (stereo not drawn) [Compound 209, 6-Chloro-N-(4-(2,6-dimethylmorpholino)benzyl)-2-ethylimidazo[1,2-a]pyridine-3-carboxamide] | 176 to 177 | < 1 | < 1
19 | CCc1nc2cc(Cl)ccn2c1C(=O)NCc1ccc(N2CC(C)OC(C)C2)cc1 (stereo not drawn) [Compound 210, 7-Chloro-N-(4-(2,6-dimethylmorpholino)benzyl)-2-ethylimidazo[1,2-a]pyridine-3-carboxamide] | 165 to 166 | 1 to 20 (≈ 0.427 to 8.54 µg/mL) | < 1
20 | CCc1nc2ccc(Cl)cn2c1C(=O)NCc1ccc(N2CCCC2)cc1 [Compound 211, 6-Chloro-2-ethyl-N-(4-(pyrrolidin-1-yl)benzyl)imidazo[1,2-a]pyridine-3-carboxamide] | 222 to 223 | < 1 | < 1
21 | CCc1nc2ccc(Cl)cn2c1C(=O)NCc1ccc(N2CC(C)CC(C)C2)cc1 (stereo not drawn) [Compound 216, 6-Chloro-N-(4-(3,5-dimethylpiperidin-1-yl)benzyl)-2-ethylimidazo[1,2-a]pyridine-3-carboxamide] | 157.2 to 158 | < 1 | < 1
22 | CCc1nc2cc(Cl)ccn2c1C(=O)NCc1ccc(N2CC(C)CC(C)C2)cc1 (stereo not drawn) [Compound 217, 7-Chloro-N-(4-(3,5-dimethylpiperidin-1-yl)benzyl)-2-ethylimidazo[1,2-a]pyridine-3-carboxamide] | 181.5 to 182.8 | < 1 | < 1
23 | CCc1nc2cc(Cl)ccn2c1C(=O)NCc1ccc(N2CCC(O)CC2)cc1 [Compound 218, 7-Chloro-2-ethyl-N-(4-(4-hydroxypiperidin-1-yl)benzyl)imidazo[1,2-a]pyridine-3-carboxamide] | 179.1 to 180 | < 1 | > 20
24 | CCc1nc2ccc(Cl)cn2c1C(=O)NCC1CCN(Cc2ccc(OC(F)(F)F)cc2)CC1 [Compound 226, 6-Chloro-2-ethyl-N-((1-(4-(trifluoromethoxy)benzyl)piperidin-4-yl)methyl)imidazo[1,2-a]pyridine-3-carboxamide] | 171 to 172 | < 1 | < 1
25 | CCc1nc2ccc(Cl)cn2c1C(=O)NCC1CCN(Cc2ccc(F)cc2)CC1 [Compound 227, 6-Chloro-2-ethyl-N-((1-(4-fluorobenzyl)piperidin-4-yl)methyl)imidazo[1,2-a]pyridine-3-carboxamide] | 176 to 177 | 1 to 20 (≈ 0.429 to 8.58 µg/mL) | < 1
26 | CCc1nc2cc(Cl)ccn2c1C(=O)NCC1CCN(Cc2ccc(OC(F)(F)F)cc2)CC1 [Compound 228, 7-Chloro-2-ethyl-N-((1-(4-(trifluoromethoxy)benzyl)piperidin-4-yl)methyl)imidazo[1,2-a]pyridine-3-carboxamide] | 145 to 146 | > 20 | > 20
27 | CCc1nc2ccc(Cl)cn2c1C(=O)NC1CCN(Cc2ccc(OC(F)(F)F)cc2)CC1 [Compound 229, 6-Chloro-2-ethyl-N-(1-(4-(trifluoromethoxy)benzyl)piperidin-4-yl)imidazo[1,2-a]pyridine-3-carboxamide] | 157 to 158 | > 20 | > 20
28 | CCc1nc2ccc(Cl)cn2c1COc1ccc(OC(F)(F)F)cc1 [Compound 239, 6-Chloro-2-ethyl-3-((4-(trifluoromethoxy)phenoxy)methyl)imidazo[1,2-a]pyridine] | 127 to 128 | > 20 | > 20
29 | CCc1nc2ccc(Cl)cn2c1CNc1ccc(N2CCN(c3ccc(F)cc3)CC2)cc1 [Compound 241, N-((6-Chloro-2-ethylimidazo[1,2-a]pyridin-3-yl)methyl)-4-(4-(4-fluorophenyl)piperazin-1-yl)aniline] | 191 to 192 | > 20 | > 20
